From patent US12600728B2, “Interleukin-17 inhibitors” (priority 2020, dated 2026)

target: biotinylated human IL-17A / AF647-labeled human IL-17RA (Homo sapiens, UniProt Q16552); assay: Human IL-17A×IL-17RA TR-FRET assay; assay type: binding; conditions: IL17AA FRET/ IL17Rawt IC50, TR-FRET, 5 nM IL-17A, 30 nM IL-17RA
Protocol: Human IL-17A×IL-17RA TR-FRET Assay
Each compound concentration is tested in duplicate.
The final total assay volume is 10 μL.
Each plate contains test compounds in columns 1-22 and controls in columns 23 and 24. The neutral control (NC) contains all the assay components, but DMSO instead of test compound. […] The fluorescence values for emission at 615 nm and 665 nm are loaded to the evaluation software Helios.
From the activity data at each compound concentration, the IC50 values are obtained using the 4-parameter logistic function (“Hill-slope model”) of Helios.

Sequence of biotinylated human IL-17A / AF647-labeled human IL-17RA (Q16552 24-155): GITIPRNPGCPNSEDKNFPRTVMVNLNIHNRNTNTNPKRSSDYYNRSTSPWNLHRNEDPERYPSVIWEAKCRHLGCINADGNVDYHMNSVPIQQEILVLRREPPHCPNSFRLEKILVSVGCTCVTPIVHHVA

IC50 [µM]	SMILES
1.47	Cc1cc[n+]([O-])cc1-c1ccc(NC(=O)[C@@H](NC(=O)c2ccnn2C)C2CCCCC2)cc1F [Example 168, (S)-3-(4-(2-cyclohexyl-2-(1-methyl-1H-pyrazole-5-carboxamido)acetamido)-2-fluorophenyl)-4-methylpyridine 1-oxide]
2.11	Cc1c(-c2ccc(NC(=O)[C@@H](NC(=O)c3ccnn3C)C3CCC(F)(F)CC3)cc2)cc(Cl)c[n+]1[O-] [Example 177, (S)-5-chloro-3-(4-(2-(4,4-difluorocyclohexyl)-2-(1-methyl-1H-pyrazole-5-carboxamido)acetamido)phenyl)-2-methylpyridine 1-oxide]

SMILES	IC50 [µM]
CCn1nccc1C(=O)NC(C(=O)Nc1ccc(-c2c(C(F)(F)F)cc[n+]([O-])c2C)cc1)C1CC2CC2C1 (single isomer, unassigned) [Example 154]	6.3

same assay, conditions: IL17AA FRET/ IL17Rawt IC50, TR-FRET, biotinylated human IL-17A 5 nM, AF647-labeled human IL-17RA 30 nM

SMILES	IC50 [µM]
Cc1c(-c2ccc(NC(=O)C(NC(=O)c3ccnn3C)C3CC4C(C3)C4(F)F)cc2)c(Cl)cc[n+]1[O-] (single isomer, unassigned) [Example 54b]	10.9
Cc1c[n+]([O-])ccc1-c1ccc(NC(=O)[C@@H](NC(=O)c2ccnn2C)C2CCCCC2)cc1 [Example 111, (S)-4-(4-(2-cyclohexyl-2-(1-methyl-1H-pyrazole-5-carboxamido)acetamido)phenyl)-3-methylpyridine I-oxide]	4.78

same assay, conditions: TR-FRET, 5 nM IL-17A, 30 nM IL-17RA; read-out: IL17AA FRET/ IL17Rawt IC50

IC50 [µM]	SMILES
0.464	Cc1cc[n+]([O-])c(C)c1-c1ccc(NC(=O)C(NC(=O)c2ccc3n2CCN(C)C3)C2CC3CC3C2)cc1 (single isomer, unassigned) [Example 150]
0.391	Cc1cc[n+]([O-])c(C)c1-c1ccc(NC(=O)[C@@H](NC(=O)c2ccc3n2CCN(C)C3)[C@H]2CCCC(F)(F)C2)cc1 [Example 152, 3-(4-((S)-2-((S)-3,3-difluorocyclohexyl)-2-(2-methyl-1,2,3,4-tetrahydropyrrolo[1,2-a]pyrazine-6-carboxamido)acetamido)phenyl)-2,4-dimethylpyridine 1-oxide]
0.798	Cc1cc[n+]([O-])c(C)c1-c1ccc(NC(=O)[C@@H](NC(=O)c2ccc3n2CCN(C)C3)C2CCCC2)cc1 [Example 153, (S)-3-(4-(2-cyclopentyl-2-(2-methyl-1,2,3,4-tetrahydropyrrolo[1,2-a]pyrazine-6-carboxamido)acetamido)phenyl)-2,4-dimethylpyridine 1-oxide]
1.15	Cc1cc[n+]([O-])c(C)c1-c1ccc(NC(=O)[C@@H](NC(=O)c2conc2CO)C2CCC(F)(F)CC2)cc1 [Example 155, (S)-3-(4-(2-(4,4-difluorocyclohexyl)-2-(3-(hydroxymethyl)isoxazole-4-carboxamido)acetamido)phenyl)-2,4-dimethylpyridine 1-oxide]
0.301	Cc1c(-c2ccc(NC(=O)C(NC(=O)c3ccc4n3CCN(C)C4)[C@@H]3C[C@@H]4[C@H](C3)C4(F)F)cc2)c(Cl)cc[n+]1[O-] (stereo partly drawn) [Example 165, 4-chloro-3-(4-(2-((1R,3s,5S)-6,6-difluorobicyclo[3.1.0]hexan-3-yl)-2-(2-methyl-1,2,3,4-tetrahydropyrrolo[1,2-a]pyrazine-6-carboxamido)acetamido)phenyl)-2-methylpyridine 1-oxide]
0.358	Cc1c(-c2ccc(NC(=O)[C@@H](NC(=O)c3ccc4n3CCN(C)C4)[C@H]3CCCC(F)(F)C3)cc2)c(C(F)(F)F)cc[n+]1[O-] [Example 166, 3-(4-((S)-2-((S)-3,3-difluorocyclohexyl)-2-(2-methyl-1,2,3,4-tetrahydropyrrolo[1,2-a]pyrazine-6-carboxamido)acetamido)phenyl)-2-methyl-4-(trifluoromethyl)pyridine 1-oxide]
1.61	COCc1nocc1C(=O)N[C@H](C(=O)Nc1ccc(-c2cc(Cl)c[n+]([O-])c2C)cc1)C1CCC(F)(F)CC1 [Example 176, (S)-5-chloro-3-(4-(2-(4,4-difluorocyclohexyl)-2-(3-(methoxymethyl)isoxazole-4-carboxamido)acetamido)phenyl)-2-methylpyridine 1-oxide]
0.316	Cc1cc[n+]([O-])c(C)c1-c1ccc(NC(=O)[C@@H](NC(=O)c2ccc3n2CCNC3)[C@H]2CCCC(F)(F)C2)cc1 [Example 208, 3-(4-((S)-2-((S)-3,3-difluorocyclohexyl)-2-(1,2,3,4-tetrahydropyrrolo[1,2-a]pyrazine-6-carboxamido)acetamido)phenyl)-2,4-dimethylpyridine 1-oxide]
0.478	CC(=O)N1CCn2c(ccc2C(=O)N[C@H](C(=O)Nc2ccc(-c3c(C(F)(F)F)cc[n+]([O-])c3C)cc2)C2CCC(F)(F)CC2)C1 [Example 210, (S)-3-(4-(2-(2-acetyl-1,2,3,4-tetrahydropyrrolo[1,2-a]pyrazine-6-carboxamido)-2-(4,4-difluorocyclohexyl)acetamido)phenyl)-2-methyl-4-(trifluoromethyl)pyridine 1-oxide]

same assay, conditions: TR-FRET, biotinylated human IL-17A 5 nM, AF647-labeled human IL-17RA 30 nM; read-out: IL17AA FRET/ IL17Rawt IC50

SMILES	IC50 [µM]
CCn1nccc1C(=O)N[C@@H](C(=O)Nc1ccc(-c2c(Cl)cc[n+]([O-])c2C)cc1)C1CCC(F)(F)CC1 (single isomer, unassigned) [Example 13b]	30.4
CCn1nccc1C(=O)NC(C(=O)Nc1ccc(-c2c(Cl)cc[n+]([O-])c2C)cc1)C1CCC(C(F)(F)F)CC1 [Example 20, 4-chloro-3-(4-((S)-2-(1-ethyl-1H-pyrazole-5-carboxamido)-2-((1r,4S)-4-(trifluoromethyl)cyclohexyl)acetamido)phenyl)-2-methylpyridine 1-oxi]	0.68
Cc1cc[n+]([O-])c(C)c1-c1ccc(NC(=O)C(NC(=O)c2ccnn2C)C2(C)CCCCC2)cc1 (stereo not drawn) [Example 43, 2,4-dimethyl-3-(4-(2-(1-methyl-1H-pyrazole-5-carboxamido)-2-(1-methylcyclohexyl)acetamido)phenyl)pyridine 1-oxide]	78.9
Cc1nc(C(F)(F)F)c(C(=O)N[C@H](C(=O)Nc2ccc(-c3c(C(F)(F)F)cc[n+]([O-])c3C)cc2)C2CCCC2)s1 [Example 73, (S)-3-(4-(2-cyclopentyl-2-(2-methyl-4-(trifluoromethyl)thiazole-5-carboxamido)acetamido)phenyl)-2-methyl-4-(trifluoromethyl)pyridine 1-oxide]	1.41
Cc1cc[n+]([O-])c(C)c1-c1ccc(NC(=O)[C@@H](NC(=O)c2conc2CN(C)C)C2CCCCC2)cc1 [Example 80, (S)-3-(4-(2-cyclohexyl-2-(3-((dimethylamino)methyl)isoxazole-4-carboxamido)acetamido)phenyl)-2,4-dimethylpyridine 1-oxide]	4.45
Cc1cc[n+]([O-])cc1-c1ccc(NC(=O)[C@@H](NC(=O)c2ccnn2C)C2CCCCC2)cc1 [Example 81, (S)-3-(4-(2-cyclohexyl-2-(1-methyl-1H-pyrazole-5-carboxamido)acetamido)phenyl)-4-methylpyridine 1-oxide]	3.74
Cc1c(-c2ccc(NC(=O)[C@@H](NC(=O)c3ccnn3C)C3CCCCC3)c(Cl)c2)c(Cl)cc[n+]1[O-] [Example 85, (S)-4-chloro-3-(3-chloro-4-(2-cyclohexyl-2-(1-methyl-1H-pyrazole-5-carboxamido)acetamido)phenyl)-2-methylpyridine 1-oxide]	20.9
Cc1c[n+]([O-])cc(C)c1-c1ccc(NC(=O)[C@@H](NC(=O)c2ccnn2C2CC2)C2CCCCC2)cc1 [Example 98, (S)-4-(4-(2-cyclohexyl-2-(1-cyclopropyl-1H-pyrazole-5-carboxamido)acetamido)phenyl)-3,5-dimethylpyridine 1-oxide]	1.4
Cc1cc[n+]([O-])c(F)c1-c1ccc(NC(=O)[C@@H](NC(=O)c2ccnn2C)C2CCCCC2)cc1 [Example 114, (S)-3-(4-(2-cyclohexyl-2-(1-methyl-1H-pyrazole-5-carboxamido)acetamido)phenyl)-2-fluoro-4-methylpyridine 1-oxide]	2.79

Results, then the compound that gave them:

IC50 [µM]	SMILES
0.382	Cc1c(-c2ccc(NC(=O)[C@@H](NC(=O)c3ccc4n3CCN(C)C4)C3CCC(F)CC3)cc2)c(Cl)cc[n+]1[O-] (mixture of isomers) [Example 129, 4-chloro-3-(4-((2S)-2-(4-fluorocyclohexyl)-2-(2-methyl-1,2,3,4-tetrahydropyrrolo[1,2-a]pyrazine-6-carboxamido)acetamido)phenyl)-2-methylpyridine 1-oxide]
0.102	Cc1cc[n+]([O-])c(C)c1-c1ccc(NC(=O)[C@@H](NC(=O)c2ccc3n2CCN(C2CC2)C3)C2CCCCC2)cc1 [Example 131, (S)-3-(4-(2-cyclohexyl-2-(2-cyclopropyl-1,2,3,4-tetrahydropyrrolo[1,2-a]pyrazine-6-carboxamido)acetamido)phenyl)-2,4-dimethylpyridine 1-oxide]
0.866	Cc1cc[n+]([O-])c(C)c1-c1ccc(NC(=O)[C@@H](NC(=O)c2ccc3n2CCN(C2COC2)C3)[C@H]2CC[C@H](C(F)(F)F)CC2)cc1 [Example 132, 2,4-dimethyl-3-(4-((S)-2-(2-(oxetan-3-yl)-1,2,3,4-tetrahydropyrrolo[1,2-a]pyrazine-6-carboxamido)-2-((1r,4S)-4-(trifluoromethyl)cyclohexyl)acetamido)phenyl)pyridine 1-oxide]
0.451	COCCN1CCn2c(ccc2C(=O)N[C@H](C(=O)Nc2ccc(-c3c(C)cc[n+]([O-])c3C)cc2)C2CCCCC2)C1 [Example 135, (S)-3-(4-(2-cyclohexyl-2-(2-(2-methoxyethyl)-1,2,3,4-tetrahydropyrrolo[1,2-a]pyrazine-6-carboxamido)acetamido)phenyl)-2,4-dimethylpyridine 1-oxide]
